According to US8710198B2, “Caprazene as a novel compound and derivatives thereof, and caprazol as a novel compound and derivatives thereof” (Meiji Seika Pharma Co., Ltd., priority 2003, dated 2014):

Experiments:
acid-fast bacteria = details: statement in words, WO 01/12643A1 / EP 1211259A1; cited from earlier work
[1] = system: Staphylococcus aureus ATCC607; assay: Minimum growth inhibitory concentration on agar medium by serial dilution method, Table 14; format: cell-based
Experimental: (§1) Minimum growth inhibitory concentrations (mcg/ml) of caprazene-1′″-amide derivatives of the formula (II) against some of microorganisms were measured on an agar culture medium by a serial dilution method according to the standard method as provided by Japanese Society of Chemotherapy. For the cultivation of Mycobacterium smegmatis (one of […]), however, there was used an agar culture medium with the addition of 1% glycerine (the same applies to in the following tests).
(§2) Minimum growth inhibitory concentrations (mcg/ml) of some of the derivative of the formula (VIII) against a variety of microorganisms were measured on an agar medium by a serial dilution method according to the standard method as provided by Japanese Society of Chemotherapy.

[2] = system: Staphylococcus aureus FDA209P; assay: Minimum growth inhibitory concentration on agar culture medium by serial dilution method (Japanese Society of Chemotherapy); format: cell-based
Experimental: as §1
(§3) Minimum growth inhibitory concentrations (mcg/ml) of some of the caprazene-1′″-ester derivative of the formula (III) against some of microorganisms were measured on an agar culture medium by a serial dilution method according to the standard method as provided by Japanese Society of Chemotherapy.
(§4) Minimum growth inhibitory concentrations (mcg/ml) of some of the caprazol-1′″-amide derivative of the formula (V) against a variety of microorganisms were measured on an agar medium by a serial dilution method according to the standard method as provided by Japanese Society of Chemotherapy.
as §2, with “of the caprazol-1′″-amide-3′″-ester derivative of” for “of the derivative of”, “the formula (VI) against a” for “the formula (VIII) against a”
as §2, with “of the caprazol-3′″-ester derivative or caprazol-1′″-ester-3′″-ester derivative of” for “of the derivative of”, “the formula (VII) against a” for “the formula (VIII) against a”
as §2

Micrococcus luteus FDA16 = assay: as above; format: cell-based
Experimental: as §1, §3, §4
as §2, with “of the caprazol-1′″-amide-3′″-ester derivative of” for “of the derivative of”, “the formula (VI) against a” for “the formula (VIII) against a”
as §2, with “of the caprazol-3′″-ester derivative or caprazol-1′″-ester-3′″-ester derivative of” for “of the derivative of”, “the formula (VII) against a” for “the formula (VIII) against a”
as §2

[3] = system: Mycobacterium smegmatis ATCC607; assay: Minimum growth inhibitory concentration on agar culture medium with 1% glycerine by serial dilution method; format: cell-based; details: agar culture medium with the addition of 1% glycerine
Experimental: as §1, §3, §4
as §2, with “of the caprazol-1′″-amide-3′″-ester derivative of” for “of the derivative of”, “the formula (VI) against a” for “the formula (VIII) against a”
as §2, with “of the caprazol-3′″-ester derivative or caprazol-1′″-ester-3′″-ester derivative of” for “of the derivative of”, “the formula (VII) against a” for “the formula (VIII) against a”

Molecule | antibacterial activities against acid-fast bacteria (acid-fast bacteria) | Minimum growth inhibitory concentration (mcg/ml) against bacteria Staphylococcus aureus ATCC607 [1] [µg/mL] | Minimum growth inhibitory concentration (mcg/ml) against bacteria Staphylococcus aureus FDA209P [2] [µg/mL] | Minimum growth inhibitory concentration (mcg/ml) against bacteria Micrococcus luteus FDA16 (Micrococcus luteus FDA16) [µg/mL] | Minimum growth inhibitory concentration (mcg/ml) against bacteria Mycobacterium smegmatis ATCC607 [3] [µg/mL]
CCCCCCCCCCC[C@@H](CC(=O)O[C@H]1CN(C)[C@@H](C(O[C@@H]2O[C@H](CN)[C@@H](O)[C@H]2O)[C@H]2O[C@@H](n3ccc(=O)[nH]c3=O)[C@H](O)[C@@H]2O)C(=O)N(C)[C@@H]1C(=O)O)OC(=O)C[C@H](C)CC(=O)O[C@@H]1O[C@H](C)[C@@H](OC)[C@@H](OC)[C@H]1OC (some centres unmarked) [caprazamycin E] | high antibacterial activities |  |  |  | 
CCCCCCCCCCCCN1C(=O)C(C(O)CN(C)C(C(=O)NC)C(OC2OC(CN)C(O)C2O)C2OC(n3ccc(=O)[nH]c3=O)C(O)C2O)N(C)C1=O (centres unmarked) [Compound VIII-G] |  | 12.5 | 25 | 6.25 | 
caprazamycin B | high antibacterial activities |  |  |  | 
CO[C@H]1[C@@H](OC)[C@H](OC(=O)C[C@@H](C)CC(=O)O[C@@H](CCCCCCCCC(C)C)CC(=O)O[C@H]2CN(C)[C@@H](C(O[C@@H]3O[C@H](CN)[C@@H](O)[C@H]3O)[C@H]3O[C@@H](n4ccc(=O)[nH]c4=O)[C@H](O)[C@@H]3O)C(=O)N(C)[C@@H]2C(=O)O)O[C@H](C)[C@H]1OC (some centres unmarked) [caprazamycin F] | high antibacterial activities |  |  |  | 
CCCCCCCCCCCC[C@@H](CC(=O)O[C@H]1CN(C)[C@@H]([C@H](O[C@@H]2O[C@H](CN)[C@@H](O)[C@H]2O)[C@H]2O[C@@H](n3ccc(=O)[nH]c3=O)[C@H](O)[C@@H]2O)C(=O)N(C)[C@@H]1C(=O)O)OC(=O)C[C@H](C)CC(=O)O[C@@H]1O[C@@H](C)C(OC)[C@@H](OC)[C@H]1OC (some centres unmarked) [caprazamycin C] | high antibacterial activities |  |  |  | 
CCCCCCCC(=O)OC1CN(C)C(C(OC2OC(CN)C(O)C2O)C2OC(n3ccc(=O)[nH]c3=O)C(O)C2O)C(=O)N(C)C1C(=O)O (centres unmarked) [Compound VII-B] |  |  | 12.5 | >50 | 1.56
CCCCCCCCCCOC(=O)C1=CCN(C)C(C(OC2OC(CN)C(O)C2O)C2OC(n3ccc(=O)[nH]c3=O)C(O)C2O)C(=O)N1C (centres unmarked) [Compound III-AA] |  |  | 12.5 | 1.56 | 12.5
CCCCCCCCCCCNC(=O)C1C(O)CN(C)C(C(OC2OC(CN)C(O)C2O)C2OC(n3ccc(=O)[nH]c3=O)C(O)C2O)C(=O)N1C (centres unmarked) [Compound V-F] |  |  | 12.5 | 25 | 6.25
CCCCCCCCCCCCCCCNC(=O)C1=CCN(C)C(C(OC2OC(CN)C(O)C2O)C2OC(n3ccc(=O)[nH]c3=O)C(O)C2O)C(=O)N1C (centres unmarked) [Compound II-J] |  |  | 1.56 | 0.78 | 1.56
CCCCCCCCCCCCCCNC(=O)C1=CCN(C)C(C(OC2OC(CNC(=O)OC(C)(C)C)C(O)C2O)C2OC(n3ccc(=O)[nH]c3=O)C(O)C2O)C(=O)N1C (centres unmarked) [Compound II-I-N-Boc] |  |  | 12.5 | 12.5 | 25
CCCCCCCCCCCCCCCCCCCNC(=O)C1=CCN(C)C(C(OC2OC(CN)C(O)C2O)C2OC(n3ccc(=O)[nH]c3=O)C(O)C2O)C(=O)N1C (centres unmarked) [Compound II-N] |  |  | 6.25 | 0.78 | 50
CCCCCCCCCCCC(=O)OC1CN(C)C(C(OC2OC(CN)C(O)C2O)C2OC(n3ccc(=O)[nH]c3=O)C(O)C2O)C(=O)N(C)C1C(=O)O (centres unmarked) [Compound VII-F, caprazol-3′″-dodecanoyl Ester Derivative] |  |  | 0.78 | 3.13 | 0.78
CCCCCCCCCCc1ccc(NC(=O)C2=CCN(C)C(C(OC3OC(CN)C(O)C3O)C3OC(n4ccc(=O)[nH]c4=O)C(O)C3O)C(=O)N2C)cc1 (centres unmarked) [Compound II-10] |  |  | 3.13 | <0.20 | 3.13
CCCCCCCCCCCNC(=O)C1=CCN(C)C(C(OC2OC(CN)C(O)C2O)C2OC(n3ccc(=O)[nH]c3=O)C(O)C2O)C(=O)N1C (centres unmarked) [Compound II-F] |  |  | 1.56 | 0.39 | 0.39
CCCCCCCCNC(=O)C1C(O)CN(C)C(C(OC2OC(CN)C(O)C2O)C2OC(n3ccc(=O)[nH]c3=O)C(O)C2O)C(=O)N1C (centres unmarked) [Compound V-C] |  |  | 25 | 25 | 6.25
CCCCCCCCCCCCCCCCCCCCNC(=O)C1=CCN(C)C(C(OC2OC(CN)C(O)C2O)C2OC(n3ccc(=O)[nH]c3=O)C(O)C2O)C(=O)N1C (centres unmarked) [Compound II-O] |  |  | 3.13 | 3.13 | 25
CCCCCCCCCCNC(=O)C1C(O)CN(C)C(C(OC2OC(CN)C(O)C2O)C2OC(n3ccc(=O)[nH]c3=O)C(O)C2O)C(=O)N1C (centres unmarked) [Compound V-E] |  |  | 25 | 25 | 6.25
CCCCCCCCC=CCCCCCCCCNC(=O)C1C(O)CN(C)C(C(OC2OC(CN)C(O)C2O)C2OC(n3ccc(=O)[nH]c3=O)C(O)C2O)C(=O)N1C (centres unmarked) [Compound V-R] |  |  | 12.5 | 25 | 6.25
CCCCCCCCCCCCC[C@@H](CC(=O)O[C@H]1CN(C)[C@@H](C(O[C@@H]2O[C@H](CN)[C@@H](O)[C@H]2O)[C@H]2O[C@@H](n3ccc(=O)[nH]c3=O)[C@H](O)[C@@H]2O)C(=O)N(C)[C@@H]1C(=O)O)OC(=O)C[C@H](C)CC(=O)O[C@@H]1O[C@H](C)[C@@H](OC)[C@@H](OC)[C@H]1OC (some centres unmarked) [caprazamycin A] | high antibacterial activities |  |  |  | 
